Measurements taken from patent US20230322753A1, “HETEROARYL DERIVATIVE, METHOD FOR PREPARATION THEREOF, AND PHARMACEUTICAL COMPOSITION COMPRISING SAME AS ACTIVE INGREDIENT” (VORONOI INC., priority 2020, published 2023).

The molecules below were run on Ba/F3 cells expressing EGFR Exon20 ins NPH (assay: Ba/F3 proliferation suppression activity, cells expressing EGFR Exon20 ins NPH). Details: Mus musculus, BaF3, 72 hours, CellTiter-Glo.
Assay type: cell-based
Description: A following experiment was carried out to evaluate the suppression activity of the compounds according to the present invention against the proliferation of Ba/F3 which expresses EGFR mutations.
For the Ba/F3 cells, a RPMI-1640 medium containing 10% FBS and 5 ng/ml IL-3 (R&D Systems) was used. The transduced Ba/F3 cells were cultured in a medium, which is same as the above medium, but 1 ug/ml puromycin (Invitrogen) was additionally added to.
24 hours before the treatment of the cells with the compounds, 3000 to 5000 cells were distributed into each well of a white clear bottom 96 well plate (Corning). The compounds were diluted in a dimethyl sulfoxide (e.g. dilution ratio of 3:1 and total 12 concentrations) and then injected by 0.5 ul respectively, such that a final concentration amounted to 0.3 nM to 50 uM. 72 hours after the treatment with the compounds, the measurement of live cells was made in such way that these cells were stored for 10 minutes at a room temperature using a CellTiter-Glo luminescent cell-viability reagent (Promega) and then their luminescence intensities were measured using a reader (i.e. Synergy Neo, Biotek). Each test was repeated three times.
resulting values were calculated as a cell growth ratio (%) compared to a control. Then, the graphs were drawn and the […] values were calculated by using a program, GraphPad Prism version 5.0.

| Compound | GI50 [nM] |
| --- | --- |
| C=CC(=O)Nc1cc(Nc2cc(N3OCC[C@@H]3c3ccc(Cl)c(C(F)(F)F)c3)ncn2)c(OC)cc1N1CCC(N(C)C)CC1 [Compound 35] | 50 to 500 |
| C=CC(=O)Nc1cc(Nc2cc(N3OCC[C@@H]3c3cccc(C(F)(F)F)c3F)ncn2)c(OC)cc1N1CCN(C2COC2)CC1 [Compound 69] | < 50 |
| C=CC(=O)Nc1cc(Nc2cc(N3OCC[C@@H]3c3cccc(C(F)(F)F)c3)ncn2)c(OC)cc1N1C[C@@H]2C[C@H]1CO2 [Compound 30] | 50 to 500 |
| C=CC(=O)Nc1cc(Nc2cc(N3OCC[C@@H]3c3cccc(C(F)(F)F)c3F)ncn2)c(OC)cc1N1CCO[C@@H](C)C1 [Compound 75] | 50 to 500 |
| C=CC(=O)Nc1cc(Nc2cc(N3OCC[C@@H]3c3ccc(F)c(C(F)(F)F)c3)ncn2)c(OC)cc1N1CCN(C(C)=O)CC1 [Compound 46] | < 50 |
| C=CCN1CCN(c2cc(OC)c(Nc3cc(N4OCC[C@@H]4c4cccc(C(F)(F)F)c4)ncn3)cc2NC(=O)C=C)CC1 [Compound 24] | < 50 |
| C=CC(=O)Nc1cc(Nc2cc(N3OCC[C@@H]3c3ccc(Cl)c(C(F)(F)F)c3)ncn2)c(OC)cc1N1CCC(N2CCN(C3CC3)CC2)CC1 [Compound 34] | 50 to 500 |
| C=CC(=O)Nc1cc(Nc2cc(N3OCC[C@@H]3c3ccc(F)c(C(F)(F)F)c3)ncn2)c(OC)cc1N1CCO[C@H](C)C1 [Compound 57] | 50 to 500 |
| C=CC(=O)Nc1cc(Nc2cc(N3OCC[C@@H]3c3ccc(F)c(C(F)(F)F)c3)ncn2)c(OC)cc1N1C[C@H]2C[C@@H]1CO2 [Compound 45] | 50 to 500 |
| C=CC(=O)Nc1cc(Nc2cc(N3OCCC3c3cc(Cl)cc(C(F)(F)F)c3)ncn2)c(OC)cc1N1CCN(CC)CC1 (stereo not shown) [Compound 50] | 50 to 500 |
| C=CC(=O)Nc1cc(Nc2cc(N3OCC[C@@H]3c3cccc(C(F)(F)F)c3F)ncn2)c(OC)cc1N1CCC(N2CCOCC2)CC1 [Compound 66] | < 50 |
| C=CC(=O)Nc1cc(Nc2cc(N3OCC[C@@H]3c3ccc(F)c(C(F)(F)F)c3)ncn2)c(OC)cc1N1CC[C@@H](N(C)C)C1 [Compound 43] | < 50 |
| C=CC(=O)Nc1cc(Nc2cc(N3OCC[C@@H]3c3cccc(C(F)(F)F)c3)ncn2)c(OC)cc1N1CCN(C2CC2)[C@@H](C)C1 [Compound 10] | 50 to 500 |
| C=CC(=O)Nc1cc(Nc2cc(N3OCC[C@@H]3c3cccc(C(F)(F)F)c3F)ncn2)c(OC)cc1N1CCC(N2CCN(C3CC3)[C@@H](C)C2)CC1 [Compound 67] | 50 to 500 |
| C=CC(=O)Nc1cc(Nc2cc(N3OCC[C@@H]3c3cccc(C(F)(F)F)c3F)ncn2)c(OC)cc1N1CCC(N2C[C@@H](C)O[C@@H](C)C2)CC1 [Compound 73] | < 50 |
| C=CC(=O)Nc1cc(Nc2cc(N3OCC[C@@H]3c3cc(F)cc(C(F)(F)F)c3)ncn2)c(OC)cc1N1CCN(CC)CC1 [Compound 4] | < 50 |
| C=CC(=O)Nc1cc(Nc2cc(N3OCC[C@@H]3c3cc(F)cc(C(F)(F)F)c3)ncn2)c(OC)cc1N1CCN(C2CC2)CC1 [Compound 2] | 50 to 500 |
| C=CC(=O)Nc1cc(Nc2cc(N3OCC[C@@H]3c3ccc(F)c(C(F)(F)F)c3)ncn2)c(OC)cc1N1CCN(C)[C@@H](C)C1 [Compound 44] | < 50 |
| C=CC(=O)Nc1cc(Nc2cc(N3OCC[C@@H]3c3ccc(F)c(C(F)(F)F)c3)ncn2)c(OC)cc1N1CCCN(C)CC1 [Compound 40] | < 50 |

| Compound | GI50 [nM] |
| --- | --- |
| C=CC(=O)Nc1cc(Nc2cc(N3OCC[C@@H]3c3cc(F)cc(C(F)(F)F)c3)ncn2)c(OC)cc1N1CCN(C2CC2)[C@H](C)C1 [Compound 5] | 50 to 500 |
| C=CC(=O)Nc1cc(Nc2cc(N3OCC[C@@H]3c3cccc(C(F)(F)F)c3)ncn2)c(OC)cc1N1CCOCC1 [Compound 27] | < 50 |
| C=CC(=O)Nc1cc(Nc2cc(N3OCC[C@@H]3c3ccc(F)c(C(F)(F)F)c3)ncn2)c(OC)cc1N1CCC(N2CCOCC2)CC1 [Compound 64] | < 50 |
| C=CC(=O)Nc1cc(Nc2cc(N3OCC[C@@H]3c3cc(F)cc(C(F)(F)F)c3)ncn2)c(OC)cc1N1CCC(N(C)C)CC1 [Compound 15] | 50 to 500 |
| C=CC(=O)Nc1cc(Nc2cc(N3OCC[C@@H]3c3ccc(F)c(C(F)(F)F)c3)ncn2)c(OC)cc1N1CCO[C@@H](C)C1 [Compound 56] | 50 to 500 |
| C=CC(=O)Nc1cc(Nc2cc(N3OCC[C@@H]3c3cccc(C(F)(F)F)c3)ncn2)c(OC)cc1N1CCC(N2CCCC2)CC1 [Compound 22] | < 50 |
| C=CC(=O)Nc1cc(Nc2cc(N3OCC[C@@H]3c3ccc(F)c(C(F)(F)F)c3)ncn2)c(OC)cc1N1CCC(N2CCO[C@H](C)C2)CC1 [Compound 59] | < 50 |
| C=CC(=O)Nc1cc(Nc2cc(N3OCC[C@@H]3c3cccc(C(F)(F)F)c3F)ncn2)c(OC)cc1N1CCO[C@H](C)C1 [Compound 79] | 50 to 500 |
| C=CC(=O)Nc1cc(Nc2cc(N3OCC[C@@H]3c3cccc(C(F)(F)F)c3)ncn2)c(OC)cc1N1CCCN(C2CC2)CC1 [Compound 29] | 50 to 500 |
| C=CC(=O)Nc1cc(Nc2cc(N3OCC[C@@H]3c3cc(F)cc(C(F)(F)F)c3)ncn2)c(OC)cc1N1CCN(C)[C@@H](C)C1 [Compound 12] | 50 to 500 |
| C=CC(=O)Nc1cc(Nc2cc(N3OCC[C@@H]3c3cccc(C(F)(F)F)c3F)ncn2)c(OC)cc1N1CCC(N2CCN(C(C)C)CC2)CC1 [Compound 78] | < 50 |
| C=CC(=O)Nc1cc(Nc2cc(N3OCC[C@@H]3c3ccc(F)c(C(F)(F)F)c3)ncn2)c(OC)cc1N1CCOCC1 [Compound 63] | 50 to 500 |
| C=CC(=O)Nc1cc(Nc2cc(N3OCC[C@@H]3c3cccc(C(F)(F)F)c3F)ncn2)c(OC)cc1OCCN(C)C [Compound 70] | < 50 |
| C=CC(=O)Nc1cc(Nc2cc(N3OCC[C@@H]3c3cc(F)cc(C(F)(F)F)c3)ncn2)c(OC)cc1N1CCN(C2CC2)[C@@H](C)C1 [Compound 6] | 50 to 500 |
| C=CC(=O)Nc1cc(Nc2cc(N3OCC[C@@H]3c3ccc(F)c(C(F)(F)F)c3)ncn2)c(OC)cc1N1CCN(CC2CC2)CC1 [Compound 42] | < 50 |
| C=CC(=O)Nc1cc(Nc2cc(N3OCC[C@@H]3c3cccc(C(F)(F)F)c3)ncn2)c(OC)cc1N1CCN(C)[C@@H](C)C1 [Compound 7] | < 50 |
| C=CC(=O)Nc1cc(Nc2cc(N3OCC[C@@H]3c3ccc(F)c(C(F)(F)F)c3)ncn2)c(OC)cc1N1CCN(CC)CC1 [Compound 38] | < 50 |
| C=CC(=O)Nc1cc(Nc2cc(N3OCC[C@@H]3c3cccc(C(F)(F)F)c3)ncn2)c(OC)cc1N1CCN(C2CC2)[C@H](C)C1 [Compound 9] | 50 to 500 |

The next lines start with the values.

| GI50 [nM] | Compound |
| --- | --- |
| < 50 | C=CC(=O)Nc1cc(Nc2cc(N3OCC[C@@H]3c3cccc(C(F)(F)F)c3F)ncn2)c(OC)cc1N(C)CCNC [Compound 87] |
| 50 to 500 | C=CC(=O)Nc1cc(Nc2cc(N3OCC[C@@H]3c3cccc(C(F)(F)F)c3F)ncn2)c(OC)cc1N1CCC(N2CCN(C(C)=O)CC2)CC1 [Compound 91] |
| < 50 | C=CC(=O)Nc1cc(Nc2cc(N3OCC[C@@H]3c3cccc(C(F)(F)F)c3F)ncn2)c(OC)cc1N1CC[C@@H](CN(C)C)C1 [Compound 95] |
| 50 to 500 | C=CC(=O)Nc1cc(Nc2cc(N3OCC[C@@H]3c3cccc(C(F)(F)F)c3F)ncn2)c(OC)cc1N1CCN(C)C(=O)C1 [Compound 85] |
| < 50 | C=CC(=O)Nc1cc(Nc2ncc(C(=O)OC(C)C)c(-c3cn(C)c4ccccc34)n2)c(OC)cc1N(C)CCN(C)C [TAK788, reference compound] |
| < 50 | C=CC(=O)Nc1cc(Nc2cc(N3OCC[C@@H]3c3cccc(C(F)(F)F)c3F)ncn2)c(OC)cc1N1CCN(CCC)CC1 [Compound 93] |
| 50 to 500 | C=CC(=O)Nc1cc(Nc2nccc(N3OCC[C@@H]3c3ccccc3)n2)c(OC)cc1N(C)CCN(C)C [Compound 108] |
| < 50 | C=CC(=O)Nc1cc(Nc2cc(N3OCC[C@@H]3c3cccc(C(F)(F)F)c3F)ncn2)c(OC)cc1N1CCC(N2C[C@@H]3C[C@H]2CO3)CC1 [Compound 96] |
| < 50 | C=CC(=O)Nc1cc(Nc2cc(N3OCCC3c3cccc4c3cnn4C)ncn2)c(OC)cc1N1CCC(N2CCN(C3CC3)CC2)CC1 (stereo not shown) [Compound 126] |
| 50 to 500 | C=CC(=O)Nc1cc(Nc2cc(N3OCC[C@@H]3c3cc(F)cc(F)c3)ccn2)c(OC)cc1N1CCC(N2CCN(C3CC3)CC2)CC1 [Compound 98] |
| 50 to 500 | C=CC(=O)Nc1cc(Nc2cc(N3OCC[C@@H]3c3cc(F)cc(F)c3)ncn2)c(OCC(F)(F)F)nc1N1CCN(C)CC1 [Compound 128] |
| < 50 | C=CC(=O)Nc1cc(Nc2cc(N3OCC[C@@H]3c3cccc(C(F)(F)F)c3F)ncn2)c(OC)cc1N1CCN(C)[C@H](C)C1 [Compound 80] |
| 500 to 5000 | C=CC(=O)Nc1cc(Nc2cc(N3OCC[C@@H]3c3cc(F)cc(F)c3)ccn2)c(OC)cc1N1CCN(C)CC1 [Compound 100] |
| 50 to 500 | C=CC(=O)Nc1cc(Nc2cc(N3OCC[C@@H]3c3cc(F)cc(F)c3)ncn2)c(OC)cc1N1CCSCC1 [Compound 107] |
| < 50 | C=CC(=O)Nc1cc(Nc2cc(N3OCC[C@@H]3c3cccc(C(F)(F)F)c3F)ncn2)c(OC)cc1N1CCC(N2CCN(C3COC3)CC2)CC1 [Compound 84] |
| 50 to 500 | C=CC(=O)Nc1cc(Nc2cc(N3OCC[C@@H]3c3cccc(C(F)(F)F)c3F)ncn2)c(OC)cc1N1CC[C@@H](N(C)C)C1 [Compound 88] |
| 50 to 500 | C=CC(=O)Nc1cc(Nc2cc(N3OCC[C@@H]3c3cccc(C(F)(F)F)c3F)ncn2)c(OC)cc1N1C[C@@H]2C[C@H]1CO2 [Compound 92] |
| 50 to 500 | C=CC(=O)Nc1cc(Nc2cc(N3OCC[C@@H]3c3cc(F)cc(F)c3)ccn2)c(OC)cc1N(C)CCN(C)C [Compound 99] |
